Tests used:
COR-L279 = assay: SANGER: Inhibition of human COR-L279 cell growth in a cell viability assay.; assay type: functional, cell-based
Calu-1 = assay: SANGER: Inhibition of human Calu-1 cell growth in a cell viability assay.; assay type: functional, cell-based
Caov-3 cell line = assay: cells; assay type: functional, cell-based; conditions: Homo sapiens;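 note: cell growth inhibition read out by a viability assay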
Description: SANGER: Inhibition of human Caov-3 cell growth in a cell viability assay.

DG-75 = assay: cells; assay type: functional, cell-based; conditions: Homo sapiens;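 note: growth inhibition of DG-75 cells, read out with a cell viability assay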
Description: SANGER: Inhibition of human DG-75 cell growth in a cell viability assay.

DMS-53 = assay: cells; assay type: functional, cell-based, Homo sapiens; conditions: Homo sapiens, DMS-53;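 note: cell viability assay measuring growth inhibition of human DMS-53 cells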
Description: SANGER: Inhibition of human DMS-53 cell growth in a cell viability assay.

DV-90 = assay: cells; assay type: functional, cell-based; conditions: Homo sapiens;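 note: Read-out is a viability assay, with IC50 reflecting the drop in DV-90 cell growth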
Description: SANGER: Inhibition of human DV-90 cell growth in a cell viability assay.

EB-3 = assay: cells; assay type: functional, cell-based; conditions: Homo sapiens;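 note: human EB-3 cells, growth inhibition read out via a cell viability assay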
Description: SANGER: Inhibition of human EB-3 cell growth in a cell viability assay.

EFE-184 = assay: cells; assay type: functional, cell-based; conditions: Homo sapiens
Description: SANGER: Inhibition of human EFE-184 cell growth in a cell viability assay.

EW-7 = assay: SANGER: Inhibition of human EW-7 cell growth in a cell viability assay.; assay type: functional, cell-based; conditions: Homo sapiens, EW-7
HSC-4 = assay: cells; assay type: functional, cell-based, Homo sapiens; conditions: Homo sapiens, HSC-4;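 note: growth inhibition of human HSC-4 cells, read out with a cell viability assay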
Description: SANGER: Inhibition of human HSC-4 cell growth in a cell viability assay.

IPC-298 = assay: SANGER: Inhibition of human IPC-298 cell growth in a cell viability assay.; assay type: functional, cell-based
IST-SL2 = assay: cells; assay type: functional, cell-based; conditions: Homo sapiens;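 note: growth inhibition of human IST-SL2 cells, read out by a cell viability assay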
Description: SANGER: Inhibition of human IST-SL2 cell growth in a cell viability assay.

LB647-SCLC = assay: cells; assay type: functional, cell-based; conditions: Homo sapiens;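 note: cell growth inhibition, read out by a viability assay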
Description: SANGER: Inhibition of human LB647-SCLC cell growth in a cell viability assay.

LC4-1 = assay: cells; assay type: functional, cell-based; conditions: Homo sapiens;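 note: growth inhibition of LC4-1 cells, read out with a cell viability assay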
Description: SANGER: Inhibition of human LC4-1 cell growth in a cell viability assay.

LOUCY = assay: cells; assay type: functional, cell-based; conditions: Homo sapiens;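 note: growth inhibition of human LOUCY cells, read out with a cell viability assay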
Description: SANGER: Inhibition of human LOUCY cell growth in a cell viability assay.

MC-CAR = assay: cells; assay type: functional, cell-based; conditions: Homo sapiens;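 note: growth inhibition of the human MC-CAR cell line, read out by a cell viability assay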
Description: SANGER: Inhibition of human MC-CAR cell growth in a cell viability assay.

MDA-MB-134-VI = assay: cells; assay type: functional, cell-based; conditions: Homo sapiens
Description: SANGER: Inhibition of human MDA-MB-134-VI cell growth in a cell viability assay.

MDA-MB-468 = assay: cells; assay type: functional, cell-based; conditions: Homo sapiens
Description: SANGER: Inhibition of human MDA-MB-468 cell growth in a cell viability assay.

MES-SA = assay: cells; assay type: functional, cell-based, Homo sapiens; conditions: Homo sapiens, MES-SA;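 note: growth inhibition of human MES-SA cells, read out with a cell viability assay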
Description: SANGER: Inhibition of human MES-SA cell growth in a cell viability assay.

MFE-296 = assay: SANGER: Inhibition of human MFE-296 cell growth in a cell viability assay.; assay type: functional, cell-based
NCI-H1618 = assay: cells; assay type: functional, cell-based; conditions: Homo sapiens;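 note: growth inhibition of human NCI-H1618 cells, measured by a cell viability assay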
Description: SANGER: Inhibition of human NCI-H1618 cell growth in a cell viability assay.

NCI-H1734 = assay: cells; assay type: functional, cell-based; conditions: Homo sapiens;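 note: growth inhibition of human NCI-H1734 cells, read out with a cell viability assay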
Description: SANGER: Inhibition of human NCI-H1734 cell growth in a cell viability assay.

NCI-H2009 = assay: cells; assay type: functional, cell-based, Homo sapiens; conditions: Homo sapiens, NCI-H2009;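 note: cell viability assay measuring inhibition of NCI-H2009 cell growth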
Description: SANGER: Inhibition of human NCI-H2009 cell growth in a cell viability assay.

NCI-H2171 = assay: cells; assay type: functional, cell-based; conditions: Homo sapiens;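 note: growth inhibition of human NCI-H2171 cells, read out by a cell viability assay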
Description: SANGER: Inhibition of human NCI-H2171 cell growth in a cell viability assay.

NCI-H322M = assay: cells; assay type: functional, cell-based; conditions: Homo sapiens;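 note: cell viability assay measuring inhibition of growth of human NCI-H322M cells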
Description: SANGER: Inhibition of human NCI-H322M cell growth in a cell viability assay.

NCI-H630 = assay: cells; assay type: functional, cell-based, Homo sapiens; conditions: Homo sapiens, NCI-H630;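 note: growth inhibition of NCI-H630 cells, read out with a cell viability assay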
Description: SANGER: Inhibition of human NCI-H630 cell growth in a cell viability assay.

NCI-H64 = assay: cells; assay type: functional, cell-based; conditions: Homo sapiens;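 note: growth inhibition of NCI-H64 cells, read out with a cell viability assay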
Description: SANGER: Inhibition of human NCI-H64 cell growth in a cell viability assay.

NCI-H838 = assay: cells; assay type: functional, cell-based; conditions: Homo sapiens;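 note: growth inhibition of human NCI-H838 cells, read out by a cell viability assay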
Description: SANGER: Inhibition of human NCI-H838 cell growth in a cell viability assay.

NCI-H889 = assay: cells; assay type: functional, cell-based; conditions: Homo sapiens;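 note: cell growth inhibition of the cell line, read out with a viability assay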
Description: SANGER: Inhibition of human NCI-H889 cell growth in a cell viability assay.

SNU-16 = assay: cells; assay type: functional, cell-based; conditions: Homo sapiens;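 note: growth inhibition of human SNU-16 cells, determined with a cell viability readout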
Description: SANGER: Inhibition of human NCI-SNU-16 cell growth in a cell viability assay.

PLC-PRF-5 = assay: cells; assay type: functional, cell-based; conditions: Homo sapiens;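 note: growth inhibition of human PLC-PRF-5 cells, read out with a viability assay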
Description: SANGER: Inhibition of human PLC-PRF-5 cell growth in a cell viability assay.

RT-4 = assay: SANGER: Inhibition of human RT4 cell growth in a cell viability assay.; assay type: functional, cell-based; conditions: Homo sapiens, RT-4
SCC-3 = assay: cells; assay type: functional, cell-based; conditions: Homo sapiens;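 note: cell viability assay measuring inhibition of SCC-3 cell growth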
Description: SANGER: Inhibition of human SCC-3 cell growth in a cell viability assay.

SIG-M5 = assay: cells; assay type: functional, cell-based; conditions: Homo sapiens;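 note: cell viability assay read-out, measuring how strongly growth of cultured human SIG-M5 cells is inhibited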
Description: SANGER: Inhibition of human SIG-M5 cell growth in a cell viability assay.

SIMA = assay: cells; assay type: functional, cell-based, Homo sapiens; conditions: Homo sapiens, SIMA;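 note: growth inhibition of SIMA cells, measured with a cell viability readout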
Description: SANGER: Inhibition of human SIMA cell growth in a cell viability assay.

SJRH30 = assay: cells; assay type: functional, cell-based; conditions: Homo sapiens;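 note: growth inhibition of human SJRH30 cells, read out with a cell viability assay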
Description: SANGER: Inhibition of human SJRH30 cell growth in a cell viability assay.

SK-CO-1 = assay: cells; assay type: functional, cell-based; conditions: Homo sapiens;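 note: growth inhibition of SK-CO-1 cells, determined by a viability readout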
Description: SANGER: Inhibition of human SK-CO-1 cell growth in a cell viability assay.

SNG-M = assay: cells; assay type: functional, cell-based; conditions: Homo sapiens
Description: SANGER: Inhibition of human SNG-M cell growth in a cell viability assay.

SR = assay: cells; assay type: functional, cell-based; conditions: Homo sapiens
Description: SANGER: Inhibition of human SR cell growth in a cell viability assay.

ST486 = assay: SANGER: Inhibition of human ST486 cell growth in a cell viability assay.; assay type: functional, cell-based
BC1 cell line = assay: SANGER: Inhibition of human BC-1 cell growth in a cell viability assay.; assay type: functional, cell-based
BOKU = assay: cells; assay type: functional, cell-based; conditions: Homo sapiens;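 note: growth inhibition of the human BOKU cell line, read out by a cell viability assay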
Description: SANGER: Inhibition of human BOKU cell growth in a cell viability assay.

C-4-II = assay: SANGER: Inhibition of human C-4-II cell growth in a cell viability assay.; assay type: functional, cell-based
CAL-148 = assay: cells; assay type: functional, cell-based; conditions: Homo sapiens
Description: SANGER: Inhibition of human CAL-148 cell growth in a cell viability assay.

TE-15 = assay: cells; assay type: functional, cell-based; conditions: Homo sapiens;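 note: cell viability readout of growth inhibition in TE-15 cells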
Description: SANGER: Inhibition of human TE-15 cell growth in a cell viability assay.

TT = assay: cells; assay type: functional, cell-based; conditions: Homo sapiens
Description: SANGER: Inhibition of human TT cell growth in a cell viability assay.

TUR = assay: cells; assay type: functional, cell-based; conditions: Homo sapiens;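 note: growth inhibition of human TUR cells, read out with a cell viability assay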
Description: SANGER: Inhibition of human TUR cell growth in a cell viability assay.

CCF-STTG1 = assay: cells; assay type: functional, cell-based; conditions: Homo sapiens;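 note: growth inhibition of human CCF-STTG1 cells, determined with a cell viability read-out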
Description: SANGER: Inhibition of human CCF-STTG1 cell growth in a cell viability assay.

CHP-126 = assay: cells; assay type: functional, cell-based; conditions: Homo sapiens
Description: SANGER: Inhibition of human CHP-126 cell growth in a cell viability assay.

COLO 205 = assay: cells; assay type: functional, cell-based; conditions: Homo sapiens
Description: SANGER: Inhibition of human COLO-205 cell growth in a cell viability assay.

Compound: Cc1cnc(-c2cnc(NCCNc3ccc(C#N)cn3)nc2-c2ccc(Cl)cc2Cl)[nH]1 [LADUVIGLUSIB]
- IC50 (COR-L279): > 2.56 µM
- IC50 (Calu-1): > 2.56 µM
- IC50 (Caov-3 cell line): > 2.56 µM
- IC50 (DG-75): > 2.56 µM
- IC50 (DMS-53): > 2.56 µM
- IC50 (DV-90): > 2.56 µM
- IC50 (EB-3): > 2.56 µM
- IC50 (EFE-184): > 2.56 µM
- IC50 (EW-7): > 2.56 µM
- IC50 (HSC-4): > 2.56 µM
- IC50 (IPC-298): > 2.56 µM
- IC50 (IST-SL2): > 2.56 µM
- IC50 (LB647-SCLC): > 2.56 µM
- IC50 (LC4-1): > 2.56 µM
- IC50 (LOUCY): > 2.56 µM
- IC50 (MC-CAR): > 2.56 µM
- IC50 (MDA-MB-134-VI): > 2.56 µM
- IC50 (MDA-MB-468): > 2.56 µM
- IC50 (MES-SA): > 2.56 µM
- IC50 (MFE-296): > 2.56 µM
- IC50 (NCI-H1618): > 2.56 µM
- IC50 (NCI-H1734): > 2.56 µM
- IC50 (NCI-H2009): > 2.56 µM
- IC50 (NCI-H2171): > 2.56 µM
- IC50 (NCI-H322M): > 2.56 µM
- IC50 (NCI-H630): > 2.56 µM
- IC50 (NCI-H64): > 2.56 µM
- IC50 (NCI-H838): > 2.56 µM
- IC50 (NCI-H889): > 2.56 µM
- IC50 (SNU-16): > 2.56 µM
- IC50 (PLC-PRF-5): > 2.56 µM
- IC50 (RT-4): > 2.56 µM
- IC50 (SCC-3): > 2.56 µM
- IC50 (SIG-M5): > 2.56 µM
- IC50 (SIMA): > 2.56 µM
- IC50 (SJRH30): > 2.56 µM
- IC50 (SK-CO-1): > 2.56 µM
- IC50 (SNG-M): > 2.56 µM
- IC50 (SR): > 2.56 µM
- IC50 (ST486): > 2.56 µM
- IC50 (BC1 cell line): > 2.56 µM
- IC50 (BOKU): > 2.56 µM
- IC50 (C-4-II): > 2.56 µM
- IC50 (CAL-148): > 2.56 µM
- IC50 (TE-15): > 2.56 µM
- IC50 (TT): > 2.56 µM
- IC50 (TUR): > 2.56 µM
- IC50 (CCF-STTG1): > 2.56 µM
- IC50 (CHP-126): > 2.56 µM
- IC50 (COLO 205): > 2.56 µM

Compound: Cc1ccc(Nc2nccc(N(C)c3ccc4c(C)n(C)nc4c3)n2)cc1S(N)(=O)=O [PAZOPANIB]
- IC50 (COR-L279): > 8 µM
- IC50 (Calu-1): > 8 µM
- IC50 (Caov-3 cell line): > 8 µM
- IC50 (DG-75): > 8 µM
- IC50 (DMS-53): > 8 µM
- IC50 (DV-90): > 8 µM
- IC50 (EB-3): > 8 µM
- IC50 (EFE-184): > 8 µM
- IC50 (EW-7): > 8 µM
- IC50 (HSC-4): > 8 µM
- IC50 (IPC-298): > 8 µM
- IC50 (IST-SL2): > 8 µM
- IC50 (LB647-SCLC): > 8 µM
- IC50 (LC4-1): > 8 µM
- IC50 (LOUCY): > 8 µM
- IC50 (MC-CAR): > 8 µM
- IC50 (MDA-MB-134-VI): > 8 µM
- IC50 (MDA-MB-468): > 8 µM
- IC50 (MES-SA): > 8 µM
- IC50 (MFE-296): 0.59 µM
- IC50 (NCI-H1618): > 8 µM
- IC50 (NCI-H1734): > 8 µM
- IC50 (NCI-H2009): > 8 µM
- IC50 (NCI-H2171): > 8 µM
- IC50 (NCI-H322M): > 8 µM
- IC50 (NCI-H64): > 8 µM
- IC50 (NCI-H838): > 8 µM
- IC50 (NCI-H889): > 8 µM
- IC50 (SNU-16): > 8 µM
- IC50 (PLC-PRF-5): > 8 µM
- IC50 (RT-4): > 8 µM
- IC50 (SCC-3): > 8 µM
- IC50 (SIG-M5): > 8 µM
- IC50 (SIMA): > 8 µM
- IC50 (SJRH30): > 8 µM
- IC50 (SK-CO-1): > 8 µM
- IC50 (SNG-M): 4.09 µM
- IC50 (SR): > 8 µM
- IC50 (ST486): > 8 µM
- IC50 (BC1 cell line): > 8 µM
- IC50 (BOKU): > 8 µM
- IC50 (C-4-II): > 8 µM
- IC50 (CAL-148): > 8 µM
- IC50 (TE-15): 7.17 µM
- IC50 (TT): 5.66 µM
- IC50 (TUR): > 8 µM
- IC50 (CCF-STTG1): 1.05 µM
- IC50 (CHP-126): > 8 µM
- IC50 (COLO 205): > 8 µM

Compound: Cn1cncc1[C@@](N)(c1ccc(Cl)cc1)c1ccc2c(c1)c(-c1cccc(Cl)c1)cc(=O)n2C [TIPIFARNIB]
- IC50 (COR-L279): 7.95 µM
- IC50 (Calu-1): 0.181 µM
- IC50 (Caov-3 cell line): > 16 µM
- IC50 (DG-75): > 16 µM
- IC50 (DMS-53): > 16 µM
- IC50 (DV-90): > 16 µM
- IC50 (EB-3): 9.1 µM
- IC50 (EFE-184): 4.58 µM
- IC50 (EW-7): > 16 µM
- IC50 (HSC-4): > 16 µM
- IC50 (IPC-298): 5.82 µM
- IC50 (IST-SL2): 13.3 µM
- IC50 (LB647-SCLC): > 16 µM
- IC50 (LC4-1): 2.55 µM
- IC50 (LOUCY): > 16 µM
- IC50 (MC-CAR): 9.07 µM
- IC50 (MDA-MB-134-VI): > 16 µM
- IC50 (MDA-MB-468): > 16 µM
- IC50 (MES-SA): 4.61 µM
- IC50 (MFE-296): 1.45 µM
- IC50 (NCI-H1618): > 16 µM
- IC50 (NCI-H1734): 14.5 µM
- IC50 (NCI-H2009): 0.363 µM
- IC50 (NCI-H2171): 3.55 µM
- IC50 (NCI-H322M): > 16 µM
- IC50 (NCI-H64): > 16 µM
- IC50 (NCI-H838): > 16 µM
- IC50 (NCI-H889): > 16 µM
- IC50 (SNU-16): > 16 µM
- IC50 (PLC-PRF-5): > 16 µM
- IC50 (RT-4): 10.9 µM
- IC50 (SCC-3): > 16 µM
- IC50 (SIG-M5): < 0.0625 µM
- IC50 (SIMA): > 16 µM
- IC50 (SJRH30): 8.71 µM
- IC50 (SK-CO-1): 13 µM
- IC50 (SNG-M): 0.204 µM
- IC50 (SR): 1.79 µM
- IC50 (ST486): 1.26 µM
- IC50 (BC1 cell line): 0.13 µM
- IC50 (BOKU): > 16 µM
- IC50 (C-4-II): 6.14 µM
- IC50 (CAL-148): 0.884 µM
- IC50 (TE-15): 0.365 µM
- IC50 (TT): > 16 µM
- IC50 (TUR): 0.871 µM
- IC50 (CCF-STTG1): > 16 µM
- IC50 (CHP-126): > 16 µM
- IC50 (COLO 205): 4.18 µM

Source: ChEMBL document CHEMBL1201861, “Genomics of Drug Sensitity in Cancer screening data, Wellcome Trust Sanger Institute”
